Results as given in patent publication US20260144798A1, “Disruption of Vascular Smooth Muscle Relaxation by Carfilzomib May be the Primary Reason for CFZ-Induced Vascular Dysfunction” (AMGEN INC., priority 2019, published 2026).

Key:
[1] = Highest applicable CFZ concentration in the myograph chamber (saturation, precipitation); assay type: physicochemical; settings: oxygenated myograph chamber, Krebs-Henseleit buffer
rat aortic rings = assay: Acetylcholine-induced relaxation of phenylephrine-precontracted rat aortic rings
Experimental: An isometric myograph (DMT 620M) was used for ex vivo measurement of vascular function. Eight-to 10-week old Sprague Dawley rats (purchased from Charles River Laboratories, Wilmington, MA) were first anesthetized with 3% isoflurane and then euthanized using inhaled desflurane. The aortas were isolated in an ice-cold, oxygenated (95% O2, 5% CO2) Krebs-Henseleit buffer (118.3 mM NaCl, 4.7 mM KCl, 1.2 mM MgSO4, 1.2 mM KH2PO4, 2.5 mM CaCl2, 25 mM NaHCO3, and 11.0 mM glucose; purchased from Sigma-Aldrich, St. Louis, MO). The thoracic aorta was carefully cleaned to remove perivascular fat and cut into 2-mm rings that were mounted between two stainless steel wires in the myograph chamber containing 8 mL of Krebs-Henseleit buffer in 95% O2 and 5% CO2 at 37° C. First, the rings were equilibrated in the chamber for 20 minutes, followed by a gradual increase of mechanical stretch until a final stretch of 10 mN (Newton) was reached. After an additional incubation with fresh buffer for 30 minutes, the rings were constricted with 8 mL of 80 mM KPSS (43 mM NaCl, 80 mM KCl, 2.5 mM CaCl2, 1.2 mM MgSO4, 1.2 mM KH2PO4, 25.0 mM NaHCO3, and 11.0 mM glucose) for 15 to 20 minutes, followed by 3 washes with the Krebs-Henseleit buffer until the force returned to the baseline stretch. The tension of the aortic rings was continuously measured with the Lab Chart 7 data acquisition system (ADInstruments, Colorado Springs, CO). In Some of the experiments the aortic rings were pre-treated with 100 μM N(gamma)-nitro-L-arginine methyl ester (L-NAME; Sigma-Aldrich) and 10 μM indomethacin for 10 minutes prior to the pre-incubation with CFZ (Amgen Inc.) for 2 hours. After an additional incubation with fresh buffer for 30 minutes, the rings were constricted with 8 mL of 80 mM KPSS (43 mM NaCl, 80 mM KCl, 2.5 mM CaCl2, 1.2 mM MgSO4, 1.2 mM KH2PO4, 25.0 mM NaHCO3, and 11.0 mM glucose) for 15 to 20 minutes, followed by 3 washes with the Krebs-Henseleit buffer until the force returned to the baseline stretch. The tension of the aortic rings was continuously measured with the Lab Chart 7 data acquisition system (ADInstruments, Colorado Springs, CO).
For assessment of the effect of CFZ on vascular relaxation, the pre-treated aortic rings were incubated with 1 μM PE for 20 minutes to induce contraction. For experiments involving sildenafil and tadalafil, a 10-minute pre-treatment with 30 nM of these smooth muscle relaxants was done prior to the incubation with CFZ. After reaching a stable contraction, ACh, sodium nitroprusside (SNP), nifedipine, riociguat, or cinaciguat was added to the chamber at an increasing concentration from 100 pM to 10 μM; each stepwise concentration increase was added after the response to the current concentration reached a plateau. The relaxation was continuously measured and plotted as percent relaxation normalized to the response with 1 μM PE.
Aortas were isolated from 8-10 week old CD® (Sprague Dawley) rats (from Charles River Laboratories) in an ice-cold, oxygenated (95% O2, 5% CO2) Krebs-Henseleit buffer. The aortas were then carefully cleaned to remove perivascular fat and cut into 2-mm rings that were mounted between two stainless steel wires in the myograph chamber containing 8 mL of Krebs-Henseleit buffer in 95% O2 and 5% CO2 at 37° C. Rings were stretch until a final stretch of 10 mN (Newton) was reached and incubated for 30 mins for equilibration.

VASP = assay: Western blot of p-VASP (S239) in rat thoracic aortic tissue; settings: CFZ treatment vs vehicle control (FIG. 6A)
Experimental: Each cell pellet was lysed in 50 to 70 μL RIPA buffer (Cell Signaling Technology, Danvers, MA) with the Halt™ protease and phosphatase inhibitor cocktail (Thermo Fisher Scientific). Lysates were quantitated and loaded onto the Li-COR Western blot system. Antibodies specific to phosphorylated eNOS and eNOS from Thermo Fisher Scientific, anti-Guanylyl Cyclase β1 (ER-19) (Sigma-Aldrich), and β-Actin (Sigma-Aldrich) were diluted 1:1000 for Western blot. Antibodies specific to p-VASP, VASP, and GADPH-HRP were purchased from Cell Signaling Technology. […] The number of measurements is indicated by “n.” #denotes P<0.05 (red vs. blue).

CC(C)C[C@H](NC(=O)[C@H](CCc1ccccc1)NC(=O)CN1CCOCC1)C(=O)N[C@@H](Cc1ccccc1)C(=O)N[C@@H](CC(C)C)C(=O)[C@@]1(C)CO1 [CFZ, carfilzomib]
highest CFZ concentration that could be applied; further increase gave saturated solution and precipitation [1]: 2.7 µM | EC50 for ACh-induced relaxation, CFZ alone (rat aortic rings; FIG. 5B experiment, vehicle alone 1.9×10^−8): 7.3×10^−8 | EC50 for ACh-induced relaxation (rat aortic rings; in the presence of CFZ 2.7 μM, vehicle alone 3.2×10^−8 (FIG. 2A)): 1.4×10 ^−7 | effect on ACh-induced relaxation (percent relaxation) (rat aortic rings; increasing CFZ concentrations, high concentrations of ACh (FIG. 2A)): significantly compromised | level of p-VASP (VASP): reduced level of p-VASP compared with the vehicle control
